Measured values reported in patent US20210333284A1, “METHODS AND MATERIALS FOR LARGE-SCALE ASSESSMENT OF LIGAND BINDING SELECTIVITY OF G-QUADRUPLEX RECOGNITION USING CUSTOM G4 MICROARRAYS” (Purdue Research Foundation, priority 2020, published 2021).
Each block holds one molecule with its values, some of them ahead of it.

What was measured:
MYC expression = conditions: human breast cancer cell line; cited from earlier work
[1] = molecular target: various G4 structures (MYC, VEGF, human telomeric G4s); experiment: Apparent dissociation constant by BMVC fluorescence; assay type: binding; conditions: 20 nM BMVC, 25° C.
Experimental: FIG. 11 Apparent dissociation constant (Kd, app) of BMVC binding to various G4 structures determined by BMVC fluorescence. Conditions: 20 nM BMVC, 25° C., pH 7, 100 mM K+ (100 mM Na+ for wtTel22).

human telomeric G4s = experiment: G4 microarray competition with Cy5-PDS, telomeric G4s; assay type: binding; conditions: 1 μM BMVC and 1 μM Cy5-PDS
Experimental: Custom G4 microarrays have been designed that contain a total of 19,249 G4 DNA sequences [31, the entirety of disclosure of which, including the supplemental information, is incorporated herein by reference]. The G4 microarrays were created by covalently attaching thousands of unique G4-forming DNA 60-mers to a glass surface. Pyridostatin (PDS) is a known G4-interactive compound. […] To test the binding selectivity of BMVC, competition experiments using custom G4 microarrays were performed. The addition of potassium-containing solution to G4-forming oligonucleotides induced G4 formation. […] After washing to remove the unbound Cy5-PDS and BMVC, the fluorescence intensities of Cy5-PDS bound to DNA oligonucleotides were detected using a fluorescence scanner. The binding selectivity of BMVC to different G4 structures was assessed by measuring the relative fluorescence intensity reduction of Cy5-PDS as BMVC concentration increased.
To determine the G4-binding selectivity of BMVC, the BMVC binding to known G4 structures was examined, including 7 well-studied MYC promoter G4 sequences, 15 other oncogene promoter G4 sequences, and 3 human telomeric G4 sequences (TABLE 4). BMVC competes with the binding of Cy5-PDS to most G4 sequences in a dose-dependent manner as indicated by reduced fluorescence intensities (FIG. 8a). […]

MYC Pu22 G4 variants = experiment: G4 microarray direct binding to loop length, loop sequence and tail variants; design: species or system human
Excerpt: Three Agilent DNA microarrays (TABLE 1) were designed, each with four identical sectors that contain ca.177,440 ssDNA 60-mers to examine G4-binding specificity. Arrays were designed with 9-73 replicates of each unique sequence to ensure statistical significance (TABLE 1). Each microarray contains different sets of G4 variants designed to examine several sequence parameters that affect G4 formation and binding specificity such as loop length (Design 1), loop sequence (Design 2), tail sequence (Design 2), and single nucleotide variants of six known G4s (Design 3). […]
The effect of specific sequence parameters on molecule binding was examined. […] Distinct patterns within the best-bound sequences were identified, including flexibility for the nucleotides in the central loop of the G4 and an overall preference for thymines in loops (FIG. 3F), consistent with previous findings that T nucleotides in loops have a greater propensity for folding into G4s than other nucleotides.^39 Different tail sequence ([…] (SEQ ID NO: 3)) preferences were found for all measured molecules (FIG. 3G), further underscoring the utility of the platform in identifying sequence features important for G4 binding and highlighting tail sequences in determining binding specificity. […]

- apparent dissociation constant (Kd, app), ranking for MYC_14/23T G4 ([1]; pH 7, 100 mM K+): highest affinity
- binding to parallel G4s (MYC, VEGF) vs human telomeric G4s by fluorescence ([1]; pH 7, 100 mM K+ (100 mM Na+ for wtTel22)): stronger than the human telomeric G4s
- inhibition of Cy5-PDS binding to human telomeric G4s (human telomeric G4s): significantly inhibited
Molecule: C[n+]1ccc(/C=C/c2ccc3[nH]c4ccc(/C=C/c5cc[n+](C)cc5)cc4c3c2)cc1.[I-].[I-] [BMVC, 3,6-Bis(1-methyl-4-vinylpyridinium) carbazole diiodide]
- effect on MYC expression (MYC expression): represses MYC expression

- correlation (R) of loop length of the MYC Pu22 G4 vs binding intensity (MYC Pu22 G4 variants; loop length variants): strongest effect
B1: FANCJ: GST-tagged human BRCA1-binding helicase-like protein / Fanconi anemia group J protein (protein, listed as Homo sapiens)
chain: MSSMWSEYTIGGVKIYFPYKAYPSQLAMMNSILRGLNSKQHCLLESPTGSGKSLALLCSALAWQQSLSGKPADEGVSEKAEVQLSCCCACHSKDFTNNDMNQGTSRHFNYPSTPPSERNGTSSTCQDSPEKTTLAAKLSAKKQASIYRDENDDFQVEKKRIRPLETTQQIRKRHCFGTEVHNLDAKVDSGKTVKLNSPLEKINSFSPQKPPGHCSRCCCSTKQGNSQESSNTIKKDHTGKSKIPKIYFGTRTHKQIAQITRELRRTAYSGVPMTILSSRDHTCVHPEVVGNFNRNEKCMELLDGKNGKSCYFYHGVHKISDQHTLQTFQGMCKAWDIEELVSLGKKLKACPYYTARELIQDADIIFCPYNYLLDAQIRESMDLNLKEQVVILDEAHNIEDCARESASYSVTEVQLRFARDELDSMVNNNIRKKDHEPLRAVCCSLINWLEANAEYLVERDYESACKIWSGNEMLLTLHKMGITTATFPILQGHFSAVLQKEEKISPIYGKEEAREVPVISASTQIMLKGLFMVLDYLFRQNSRFADDYKIAIQQTYSWTNQIDISDKNGLLVLPKNKKRSRQKTAVHVLNFWCLNPAVAFSDINGKVQTIVLTSGTLSPMKSFSSELGVTFTIQLEANHIIKNSQVWVGTIGSGPKGRNLCATFQNTETFEFQDEVGALLLSVCQTVSQGILCFLPSYKLLEKLKERWLSTGLWHNLELVKTVIVEPQGGEKTNFDELLQVYYDAIKYKGEKDGALLVAVCRGKVSEGLDFSDDNARAVITIGIPFPNVKDLQVELKRQYNDHHSKLRGLLPGRQWYEIQAYRALNQALGRCIRHRNDWGALILVDDRFRNNPSRYISGLSKWVRQQIQHHSTFESALESLAEFSKKHQKVLNVSIKDRTNIQDNESTLEVTSLKYSTPPYLLEAASHLSPENFVEDEAKICVQELQCPKIITKNSPLPSSIISRKEKNDPVFLEEAGKAEKIVISRSTSPTFNKQTKRVSWSSFNSLGQYFTGKIPKATPELGSSENSASSPPRFKTEKMESKTVLPFTDKCESSNLTVNTSFGSCPQSETIISSLKIDATLTRKNHSEHPLCSEEALDPDIELSLVSEEDKQSTSNRDFETEAEDESIYFTPELYDPEDTDEEKNDLAETDRGNRLANNSDCILAKDLFEIRTIKEVDSAREVKAEDCIDTKLNGILHIEESKIDDIDGNVKTTWINELELGKTHEIEIKNFKPSPSKNKGMFPGFK
modifications: GST tag

B2: DHX36: GST-tagged human DHX36/G4R1/MLEL1 helicase (protein, listed as Homo sapiens)
chain: MSYDYHQNWGRDGGPRSSGGGYGGGPAGGHGGNRGSGGGGGGGGGGRGGRGRHPGHLKGREIGMWYAKKQGQKNKEAERQERAVVHMDERREEQIVQLLNSVQAKNDKESEAQISWFAPEDHGYGTEVSTKNTPCSENKLDIQEKKLINQEKKMFRIRNRSYIDRDSEYLLQENEPDGTLDQKLLEDLQKKKNDLRYIEMQHFREKLPSYGMQKELVNLIDNHQVTVISGETGCGKTTQVTQFILDNYIERGKGSACRIVCTQPRRISAISVAERVAAERAESCGSGNSTGYQIRLQSRLPRKQGSILYCTTGIILQWLQSDPYLSSVSHIVLDEIHERNLQSDVLMTVVKDLLNFRSDLKVILMSATLNAEKFSEYFGNCPMIHIPGFTFPVVEYLLEDVIEKIRYVPEQKEHRSQFKRGFMQGHVNRQEKEEKEAIYKERWPDYVRELRRRYSASTVDVIEMMEDDKVDLNLIVALIRYIVLEEEDGAILVFLPGWDNISTLHDLLMSQVMFKSDKFLIIPLHSLMPTVNQTQVFKRTPPGVRKIVIATNIAETSITIDDVVYVIDGGKIKETHFDTQNNISTMSAEWVSKANAKQRKGRAGRVQPGHCYHLYNGLRASLLDDYQLPEILRTPLEELCLQIKILRLGGIAYFLSRLMDPPSNEAVLLSIRHLMELNALDKQEELTPLGVHLARLPVEPHIGKMILFGALFCCLDPVLTIAASLSFKDPFVIPLGKEKIADARRKELAKDTRSDHLTVVNAFEGWEEARRRGFRYEKDYCWEYFLSSNTLQMLHNMKGQFAEHLLGAGFVSSRNPKDPESNINSDNEKIIKAVICAGLYPKVAKIRLNLGKKRKMVKVYTKTDGLVAVHPKSVNVEQTDFHYNWLIYHLKMRTSSIYLYDCTEVSPYCLLFFGGDISIQKDNDQETIAVDEWIVFQSPARIAHLVKELRKELDILLQEKIESPHPVDWNDTKSRDCAVLSAIIDLIKTQEKATPRNFPPRFQDGYYS
modifications: GST tag
notes: GST-tagged human DHX36/G4R1/MLEL1 helicase
- tail (flanking) sequence preference in direct binding (MYC Pu22 G4 variants; NNGGGTGGGGAGGGTGGGNN variants, no competitor): preferentially binds MYC22 G4 variants containing pyrimidines (C/T) at the 5′ end of the G4
